Measurements from US6737383B1, “Herbicidal oxadiazolidines” (priority 1999, dated 2004).

Assays:
blackgrass = assay: Test B pre/postemergence blackgrass; format: in vivo, Alopecurus myosuroides
Procedure, shortened: (§1)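 Response is a visual 0-to-10 score relative to untreated plants, where 0 means no effect and 10 means complete control, taken twelve to sixteen days after application. Treatments went onto soil at planting and onto foliage of 1- to 4-leaf plants, using a surfactant-containing non-phytotoxic solvent.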

cocklebur = assay: Test B pre/postemergence cocklebur; format: in vivo, Xanthium strumarium
Procedure, shortened: as §1

giant foxtail = assay: Test B pre/postemergence giant foxtail; format: in vivo, Setaria faberii
Procedure, shortened: as §1

corn = assay: Test B pre/postemergence corn; format: in vivo, Zea mays
Procedure, shortened: as §1

rape = assay: Test B pre/postemergence rape; format: in vivo, Brassica napus
Procedure, shortened: as §1

wild oat = assay: Test B pre/postemergence wild oat; format: in vivo, Avena fatua
Procedure, shortened: as §1

crabgrass = assay: Test B pre/postemergence crabgrass; format: in vivo, Digitaria sanguinalis
Procedure, shortened: as §1

purple nutsedge = assay: Test B pre/postemergence purple nutsedge; format: in vivo, Cyperus rotundus
Procedure, shortened: as §1

bedstraw = assay: Test B pre/postemergence bedstraw; format: in vivo, Galium aparine
Procedure, shortened: as §1

velvetleaf = assay: Test B pre/postemergence velvetleaf; format: in vivo, Abutilon theophrasti
Procedure, shortened: as §1

morningglory = assay: Test B pre/postemergence morningglory; format: in vivo, Ipomoea hederacea
Procedure, shortened: as §1

soybean = assay: Test B pre/postemergence soybean; format: in vivo, Glycine max
Procedure, shortened: as §1

sugar beet = assay: Test B pre/postemergence sugar beet; format: in vivo, Beta vulgaris
Procedure, shortened: as §1

pigweed = assay: Test B pre/postemergence pigweed; format: in vivo, Amaranthus retroflexus
Procedure, shortened: as §1

wheat = assay: Test B pre/postemergence wheat; format: in vivo, Triticum aestivum
Procedure, shortened: as §1

surinam grass = assay: Test B pre/postemergence surinam grass; format: in vivo, Brachiaria decumbens
Procedure, shortened: as §1

[1] = Postemergence, Rate 62 g/ha, scale of 0 to 10, 0 is no effect, 10 is complete control
[2] = Postemergence, Rate 125 g/ha, scale 0 to 10, 0 is no effect, 10 is complete control
[3] = Postemergence, Rate 250 g/ha, scale 0 to 10
[4] = Postemergence, Rate 500 g/ha, scale 0 to 10, 0 is no effect, 10 is complete control
[5] = Preemergence, Rate 62 g/ha, scale of 0 to 10 where 0 is no effect and 10 is complete control
[6] = Preemergence, Rate 125 g/ha, scale 0 to 10, 0 is no effect, 10 is complete control
[7] = Preemergence, Rate 250 g/ha, scale 0 to 10, 0 is no effect, 10 is complete control
[8] = Preemergence, Rate 500 g/ha, scale of 0 to 10 where 0 is no effect and 10 is complete control
[9] = Preemergence, Rate 500 g/ha, scale 0 to 10, 0 is no effect, 10 is complete control

CC(C)N(C(=O)n1oc(=O)n(CC2OCCO2)c1=O)c1ccc(F)cc1F [Compound 501]
Blackgrass plant response rating (blackgrass; [1]): 3
Blackgrass plant response rating (blackgrass; [2]): 6
Blackgrass plant response rating (blackgrass; [3]): 6
Plant response rating, Blackgrass (blackgrass; [4]): 7
Plant response rating, Blackgrass (blackgrass; [5]): 5
Blackgrass plant response rating (blackgrass; [6]): 5
Blackgrass plant response rating (blackgrass; [7]): 9
Blackgrass plant response rating (blackgrass; [8]): 9
Cocklebur plant response rating (cocklebur; [1]): 0
Cocklebur plant response rating (cocklebur; [2]): 0
Cocklebur plant response rating (cocklebur; [3]): 2
Plant response rating, Cocklebur (cocklebur; [4]): 5
Plant response rating, Cocklebur (cocklebur; [5]): 0
Cocklebur plant response rating (cocklebur; [6]): 0
Cocklebur plant response rating (cocklebur; [7]): 0
Cocklebur plant response rating (cocklebur; [8]): 3
Giant foxtail plant response rating (giant foxtail; [1]): 8
Giant foxtail plant response rating (giant foxtail; [2]): 8
Plant response rating, Giant foxtail (giant foxtail; [4]): 8
Plant response rating, Giant foxtail (giant foxtail; [5]): 9
Giant foxtail plant response rating (giant foxtail; [6]): 10
Giant foxtail plant response rating (giant foxtail; [8]): 10
Corn plant response rating (corn; [1]): 0
Corn plant response rating (corn; [2]): 0
Corn plant response rating (corn; [3]): 4
Plant response rating, Corn (corn; [4]): 6
Corn plant response rating (corn; [6]): 2
Rape plant response rating (rape; [1]): 2
Rape plant response rating (rape; [2]): 2
Plant response rating, Rape (rape; [4]): 7
Plant response rating, Rape (rape; [5]): 0
Rape plant response rating (rape; [6]): 0
Rape plant response rating (rape; [8]): 10
Wild oats plant response rating (wild oat; [1]): 0
Wild oats plant response rating (wild oat; [2]): 0
Plant response rating, Wild oats (wild oat; [4]): 3
Plant response rating, Wild oats (wild oat; [5]): 0
Wild oats plant response rating (wild oat; [6]): 7
Wild oats plant response rating (wild oat; [8]): 10
Crabgrass plant response rating (crabgrass; [1]): 7
Crabgrass plant response rating (crabgrass; [2]): 8
Crabgrass plant response rating (crabgrass; [3]): 9
Plant response rating, Crabgrass (crabgrass; [4]): 8
Plant response rating, Crabgrass (crabgrass; [5]): 8
Crabgrass plant response rating (crabgrass; [6]): 9
Crabgrass plant response rating (crabgrass; [8]): 9
Nutsedge plant response rating (purple nutsedge; [2]): 0
Plant response rating, Nutsedge (purple nutsedge; [4]): 2
Plant response rating, Nutsedge (purple nutsedge; [5]): 0
Nutsedge plant response rating (purple nutsedge; [6]): 3
Nutsedge plant response rating (purple nutsedge; [8]): 9
Plant response rating, Bedstraw (bedstraw; [4]): 9
Plant response rating, Bedstraw (bedstraw; [5]): 2
Bedstraw plant response rating (bedstraw; [6]): 9
Bedstraw plant response rating (bedstraw; [7]): 10
Bedstraw plant response rating (bedstraw; [9]): 9
Velvetleaf plant response rating (velvetleaf; [1]): 0
Velvetleaf plant response rating (velvetleaf; [2]): 0
Plant response rating, Velvetleaf (velvetleaf; [4]): 3
Plant response rating, Velvetleaf (velvetleaf; [5]): 0
Velvetleaf plant response rating (velvetleaf; [6]): 2
Velvetleaf plant response rating (velvetleaf; [8]): 5
Morningglory plant response rating (morningglory; [1]): 0
Morningglory plant response rating (morningglory; [2]): 3
Plant response rating, Morningglory (morningglory; [4]): 4
Plant response rating, Morningglory (morningglory; [5]): 0
Morningglory plant response rating (morningglory; [6]): 0
Morningglory plant response rating (morningglory; [8]): 5
Soybean plant response rating (soybean; [1]): 4
Soybean plant response rating (soybean; [2]): 3
Plant response rating, Soybean (soybean; [4]): 5
Plant response rating, Soybean (soybean; [5]): 0
Soybean plant response rating (soybean; [6]): 0
Soybean plant response rating (soybean; [8]): 8
Sugarbeets plant response rating (sugar beet; [1]): 5
Sugarbeets plant response rating (sugar beet; [2]): 5
Plant response rating, Sugarbeets (sugar beet; [4]): 8
Plant response rating, Sugarbeets (sugar beet; [5]): 0
Sugarbeets plant response rating (sugar beet; [6]): 3
Sugarbeets plant response rating (sugar beet; [8]): 8
Redroot pigweed plant response rating (pigweed; [1]): 0
Redroot pigweed plant response rating (pigweed; [2]): 4
Plant response rating, Redroot pigweed (pigweed; [4]): 5
Plant response rating, Redroot pigweed (pigweed; [5]): 9
Redroot pigweed plant response rating (pigweed; [6]): 10
Redroot pigweed plant response rating (pigweed; [8]): 10
Wheat plant response rating (wheat; [1]): 2
Plant response rating, Wheat (wheat; [4]): 3
Plant response rating, Wheat (wheat; [5]): 4
Wheat plant response rating (wheat; [6]): 4
Wheat plant response rating (wheat; [8]): 8
B. signalgrass plant response rating (surinam grass; [1]): 2
B. signalgrass plant response rating (surinam grass; [2]): 6
B. signalgrass plant response rating (surinam grass; Postemergence, Rate 250 g/ha, scale 0 to 10, 0 no effect, 10 complete control): 7
Plant response rating, B. signalgrass (surinam grass; [4]): 7
Plant response rating, B. signalgrass (surinam grass; [5]): 8
B. signalgrass plant response rating (surinam grass; [6]): 9
B. signalgrass plant response rating (surinam grass; [7]): 9
B. signalgrass plant response rating (surinam grass; [9]): 10
